Measurements: patent US9884086B2, “Administration method for anticancer drugs” (Dong-A University Research Foundation for Industry—Academy …, priority 2014, dated 2018)

How the values were obtained:
[1] = i.p. injection; cited from earlier work
[2] = system: ATR pathway; experiment: ATR pathway markers in mouse liver after cisplatin injection at CT08 or CT20 (immunoblotting); format: in vivo
Experimental: Before sacrificing C57BL/6J male mouse, the animal was placed under an environment where the daytime and nighttime were maintained for 12 hours each […], during 2 weeks. After exposing the mouse to CO2 and putting the animal to death, the liver of the mouse was cut into pieces having a size of less than 2 mm and washed with phosphate buffer saline (PBS), followed by freezing the same in liquid nitrogen. The frozen liver piece was pulverized using a ceramic mortar and pestle under liquid nitrogen to prepare a whole cell fusion. An extract of cytoplasm and nucleus protoplasm as well as the whole cell fusion were prepared. A chromatin-rich part could be obtained by treating 10-U DNase I (Promega) and 100-U micrococcal nuclease at 30° C. for 30 minutes and from the nucleus protoplasm through extraction using fillets. Each part was analyzed by SDS-PAGE and both of Ponceau S staining and immunoblotting. According to typical immunoblotting orders, amounts of proteins were determined using the above parts. For quantification of the immunoblotting, ImageQuant 5.2 software (Molecular Dynamics) was used. Antibodies used in the experiments were as follows: GAPDH, p-Chk1 5345, p53, p-p53 S15 (Cell Signaling Technology), ATR, RPA70 (Replication Protein A), Chk1, Actin (Santa Cruz Biotechnology), Clock, Cry1, Cry2, p-MCM2 5108, Tim (Timeless), Tipin (Bethyl Laboratory), histone H3 (Millipore), Per2 (BD Biosciences) and platinum GpG (Oncolyze). Tim and Cry1, Tim protein complexes were precipitated using protein A/G-coupled sepharose (Sigma) collected beforehand as well as an anti-Tim antibody. In order to detect Cry1 precipitated together with Tim, immunoblotting was implemented. In the present disclosure, CT refers to a time having passed from a time period when the bio-cyclic rhythm was induced. For instance, CT08 means 8 hours after the induction of the bio-cyclic rhythm, and CT20 means 20 hours after the induction of the bio-cyclic rhythm. […]

[3] = system: WT MEFs cells; experiment: removal of Platinum-GpG adducts after cisplatin in forskolin-synchronized cells (immunoslot blotting); format: cell-based, mouse; details: cisplatin given 12 hours vs 24 hours after forskolin treatment
Experimental: For cell culture, 1 ml of 10% (vol/vol) fetal bovine serum (FBS, Hyclone Co.) was added to 10 ml of Dulbecco's modified Eagle's medium (DMEM), followed by adding 100 μl of 1% (vol/vol) penicillin-streptomycin thereto. Then, NIH3T3 cells, wild-type mouse embryo fibroblasts (WT MEFs), and mouse embryo fibroblasts free from cryptochrome 1 (Cry1) and cryptochrome 2(Cry2) (Cry^DKO MEFs), respectively, were cultured in the above prepared culture medium. For bio-cycle synchronization, fused cells were further cultured for additional three (3) days after adding […] forskolin to the above medium. After separating genomic DNA from MEFs cells using QIAamp DNA Mini kit (Qiagen), […] of genomic DNA was moved to a nitrocellulose membrane by a BioDot SF Microfiltration apparatus (BioRad). The genomic DNA was heated at 80° C. for 2 hours under vacuum to be bound to the nitrocellulose membrane. Using a mono-antibody specifically recognizing Platinum-GpG adducts (Oncolyze), an amount of DNA damaged by cisplatin was relatively measured. Then, it may be identified whether DNA bound to the nitrocellulose membrane is quantified on Gel-doc after staining the DNA with Sybr-gold as a DNA staining reagent.

[4] = system: ATR; experiment: phosphorylation of p53 and Chk1 (proxy marker of ATR) after UV radiation in forskolin-synchronized cells; format: cell-based, mouse; details: NIH3T3 cells
Experimental: (§1) For cell culture, 1 ml of 10% (vol/vol) fetal bovine serum (FBS, Hyclone Co.) was added to 10 ml of Dulbecco's modified Eagle's medium (DMEM), followed by adding 100 μl of 1% (vol/vol) penicillin-streptomycin thereto. Then, NIH3T3 cells, wild-type mouse embryo fibroblasts (WT MEFs), and mouse embryo fibroblasts free from cryptochrome 1 (Cry1) and cryptochrome 2(Cry2) (Cry^DKO MEFs), respectively, were cultured in the above prepared culture medium. For bio-cycle synchronization, fused cells were further cultured for additional three (3) days after adding […] forskolin to the above medium. For UV radiation, using a germicidal lamp (GE) mainly emitting UV-C beam, UV light was emitted to the fused cells by 5 J/m^2. Then, a fluorescence rate of the incident beam was measured using a UV-C sensor. An extract of cytoplasm and nucleus protoplasm as well as the whole cell fusion were prepared. A chromatin-rich part could be obtained by treating 10-U DNase I (Promega) and 100-U micrococcal nuclease at 30° C. for 30 minutes and from the nucleus protoplasm through extraction using fillets. Each part was analyzed by SDS-PAGE and both of Ponceau S staining and immunoblotting. According to typical immunoblotting orders, amounts of proteins were determined using the above parts. For quantification of the immunoblotting, ImageQuant 5.2 software (Molecular Dynamics) was used. […]

[5] = system: cryptochrome 1 (Cry1); experiment: Cry1 expression over time after forskolin bio-cycle synchronization in WT MEFs (immunoblotting); format: cell-based, mouse
Experimental: as §1, with “medium.” for “medium. For UV radiation, using a germicidal lamp (GE) mainly emitting UV-C beam, UV light was emitted to the fused cells by 5 J/m^2. Then, a fluorescence rate of the incident beam was measured using a UV-C sensor.”

Compound: N.N.[Cl][Pt][Cl] [cisplatin]
- time until cisplatin reaches the liver [1]: about 2 hours
- accumulation of replicated protein A (RPA70) in chromatin ([2]; liver chromatin, after cisplatin injection at CT20): accumulation of replicated protein A was identified in chromatin
- p-MCM2 signal, mouse at CT20 as compared to the mouse at CT08 ([2]; mouse liver, at 8 hours or later after the cisplatin injection): ≥ 2 times
- extents of expression of p-Chk1 and p-p53 ([2]; mouse liver, cisplatin injected at CT08 and CT20): insignificant
- removal rate of Platinum-GpG [3]: higher at 12 hours after forskolin treatment

Compound: C=C[C@@]1(C)CC(=O)[C@]2(O)[C@@]3(C)[C@@H](O)CCC(C)(C)[C@@H]3[C@H](O)[C@H](OC(C)=O)[C@@]2(C)O1 [forskolin]
- extent of phosphorylation of p53 and Chk1, cell 12 hours after forskolin treatment as compared to cell 24 hours after [4]: 2 to 3 times
- time of maximum expression of cryptochrome 1 (Cry1) after forskolin treatment [5]: 12 h
- time of minimum expression of cryptochrome 1 (Cry1) after forskolin treatment [5]: 24 h
